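Protocol summary: plate cells (96-well), add compound at 5 concentrations, incubate 48 h, interpolate endpoints linearly. The concentration for 50% growth inhibition is given as GI50.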 Active and inactive are the calls of the source. Cut-off read from the data, not from the text of the source: active = GI50 up to about 1.1 µM and inactive = higher.
What was measured:
Test in all cases: NCI anticancer screen, dose series, 48 h
M14 = test system: M14
SK-MEL-5 = test system: SK-MEL-5
OVCAR-5 = test system: OVCAR-5
TK-10 = test system: TK-10
MDA-N = test system: MDA-N
KM12 = test system: KM12
HL-60 = test system: HL-60
UO-31 = test system: UO-31
SK-MEL-2 = test system: SK-MEL-2
SK-MEL-28 = test system: SK-MEL-28
A549 = test system: A549
U-251 = test system: U-251
Malme-3M = test system: Malme-3M
OVCAR-8 = test system: OVCAR-8
HOP-62 = test system: HOP-62
OVCAR-3 = test system: OVCAR-3
COLO 205 = test system: COLO 205
RPMI-8226 = test system: RPMI-8226
HCC 2998 = test system: HCC 2998
NCI-H522 = test system: NCI-H522

SMILES	GI50 (M14)	GI50 (SK-MEL-5)	GI50 (OVCAR-5)	GI50 (TK-10)	GI50 (MDA-N)	GI50 (KM12)	GI50 (HL-60)	GI50 (UO-31)	GI50 (SK-MEL-2)	GI50 (SK-MEL-28)	GI50 (A549)	GI50 (U-251)	GI50 (Malme-3M)	GI50 (OVCAR-8)	GI50 (HOP-62)	GI50 (OVCAR-3)	GI50 (COLO 205)	GI50 (RPMI-8226)	GI50 (HCC 2998)	GI50 (NCI-H522)
C=C1CC[C@@H](C)[C@](C)(CCc2ccoc2)C/C=C\C=C/1C(=O)O	32.4 µM (inactive)	39.6 µM (inactive)	> 100 µM (inactive)	> 100 µM (inactive)	22 µM (inactive)	33.1 µM (inactive)	16.5 µM (inactive)	34.1 µM (inactive)	19.1 µM (inactive)	21.9 µM (inactive)	36.2 µM (inactive)	34.3 µM (inactive)	33.4 µM (inactive)	21 µM (inactive)	44.8 µM (inactive)	19.3 µM (inactive)	21 µM (inactive)	–	–	–
N#CC(C(=O)/C(=N/Nc1nc(S)nn1N)C(C#N)c1ccccc1)c1ccccc1 (centres undefined)	> 100 µM (inactive)	> 100 µM (inactive)	> 100 µM (inactive)	> 100 µM (inactive)	–	> 100 µM (inactive)	> 100 µM (inactive)	> 100 µM (inactive)	> 100 µM (inactive)	> 100 µM (inactive)	> 100 µM (inactive)	> 100 µM (inactive)	> 100 µM (inactive)	> 100 µM (inactive)	> 100 µM (inactive)	> 100 µM (inactive)	> 100 µM (inactive)	> 100 µM (inactive)	> 100 µM (inactive)	> 100 µM (inactive)
O=Cc1cc(O)c(O)c(O)c1-c1c(C=O)cc(O)c(O)c1O	> 100 µM (inactive)	> 100 µM (inactive)	> 100 µM (inactive)	> 100 µM (inactive)	–	> 100 µM (inactive)	> 100 µM (inactive)	> 100 µM (inactive)	> 100 µM (inactive)	> 100 µM (inactive)	> 100 µM (inactive)	> 100 µM (inactive)	> 100 µM (inactive)	> 100 µM (inactive)	> 100 µM (inactive)	> 100 µM (inactive)	> 100 µM (inactive)	64.3 µM (inactive)	> 100 µM (inactive)	> 100 µM (inactive)
COC(=O)c1cc2c3ccccc3n(C(C)=O)c2cn1	> 100 µM (inactive)	> 100 µM (inactive)	> 100 µM (inactive)	45.8 µM (inactive)	–	80.5 µM (inactive)	35.7 µM (inactive)	> 100 µM (inactive)	> 100 µM (inactive)	> 100 µM (inactive)	> 100 µM (inactive)	> 100 µM (inactive)	> 100 µM (inactive)	56.4 µM (inactive)	59.6 µM (inactive)	98.6 µM (inactive)	92.5 µM (inactive)	45.4 µM (inactive)	> 100 µM (inactive)	53.1 µM (inactive)
O=C(NC1=C(Cl)C(=O)c2ccccc2C1=O)C(=O)C(C(=O)c1ccc2ccccc2c1)C1OC(=O)c2ccccc21 (centres undefined)	2.18 µM (inactive)	0.564 µM (active)	11.8 µM (inactive)	25.6 µM (inactive)	–	3.09 µM (inactive)	2.49 µM (inactive)	13.2 µM (inactive)	4.94 µM (inactive)	4.59 µM (inactive)	4.72 µM (inactive)	4.38 µM (inactive)	1.7 µM (inactive)	4.61 µM (inactive)	5.82 µM (inactive)	2.7 µM (inactive)	7.4 µM (inactive)	2.05 µM (inactive)	9.55 µM (inactive)	3.94 µM (inactive)
COc1cccc(NC(=O)C(C)(C)C)c1SSc1c(NC(=O)C(C)(C)C)cccc1OC	17.5 µM (inactive)	44.1 µM (inactive)	26.7 µM (inactive)	> 100 µM (inactive)	–	26.9 µM (inactive)	20.3 µM (inactive)	31.5 µM (inactive)	48.3 µM (inactive)	32.7 µM (inactive)	44.9 µM (inactive)	17.3 µM (inactive)	33.7 µM (inactive)	19.3 µM (inactive)	> 100 µM (inactive)	37.9 µM (inactive)	26.9 µM (inactive)	5.78 µM (inactive)	> 69.3 µM (inactive)	14.2 µM (inactive)
CCOC(=O)/C(C#N)=N\Nc1ccc(-n2c(C)nc3ccccc3c2=O)cc1	69.8 µM (inactive)	16.5 µM (inactive)	> 100 µM (inactive)	> 100 µM (inactive)	47.3 µM (inactive)	30.2 µM (inactive)	26.5 µM (inactive)	50.4 µM (inactive)	> 100 µM (inactive)	33.2 µM (inactive)	73.6 µM (inactive)	> 100 µM (inactive)	–	29.6 µM (inactive)	> 100 µM (inactive)	32.7 µM (inactive)	78.3 µM (inactive)	30.9 µM (inactive)	–	–
